Experimental data as given in patent US10501518B2 (priority 2013, dated 2019).
Where two headings read alike, the source gives them in different places.

Assays:
R^0 form of human PTHR-1 = target: T1, R^0 form of human PTHR-1 (Homo sapiens, UniProt Q03431); test: Radio-ligand competition binding to R^0 form of human PTHR-1 (COS-7 membranes, 125I-PTH(1-34) tracer, GTPγS); details: for R^0/RG: Table 4, ratio of R^0 to RG IC50, human PTHR-1; for affinity for the R^0 state of hPTHR-1, in words: compared with PTH(1-34)
T1 construct: expressed in transfected cells; host or cells: COS-7
T1 sequence (Q03431 27-593): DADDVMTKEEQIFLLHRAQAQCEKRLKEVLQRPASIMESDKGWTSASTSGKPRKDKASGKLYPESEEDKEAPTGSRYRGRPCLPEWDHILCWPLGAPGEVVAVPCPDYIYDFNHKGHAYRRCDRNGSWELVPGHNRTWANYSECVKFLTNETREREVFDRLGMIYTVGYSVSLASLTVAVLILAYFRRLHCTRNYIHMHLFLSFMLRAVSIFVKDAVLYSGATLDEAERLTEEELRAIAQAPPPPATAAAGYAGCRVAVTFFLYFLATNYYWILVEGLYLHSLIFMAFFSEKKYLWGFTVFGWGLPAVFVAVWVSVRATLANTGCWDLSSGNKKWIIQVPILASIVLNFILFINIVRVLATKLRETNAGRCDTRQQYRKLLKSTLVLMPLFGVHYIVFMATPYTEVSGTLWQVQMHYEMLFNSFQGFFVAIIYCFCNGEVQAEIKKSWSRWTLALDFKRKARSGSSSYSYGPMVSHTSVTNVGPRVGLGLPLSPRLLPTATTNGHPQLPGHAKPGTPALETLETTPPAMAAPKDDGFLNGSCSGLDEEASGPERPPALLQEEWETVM
Source text: (§1) Data are means (±SEM) of n≥4 experiments, each performed in duplicate.

WT human PTHR-1 = target: T2, WT human PTHR-1 (Homo sapiens, UniProt Q03431); test: cAMP GloSensor dose-response in GP-2.3 cells expressing human PTHR-1; assay type: cell-based; details: for cAMP (hPTHR-1) Max: luminescence counts per second relative to PTH(1-34); for cAMP (hPTHR-1) Max / Max: 12-16 minutes after ligand addition; for Fold nM PTH(1-34): EC50 relative to PTH(1-34)
T2 construct: bioactivity of the resulting compound in full-length hPTHR-1 and a truncated version; expressed in transfected cells
T2 sequence (Q03431 27-593): T1 sequence (Q03431 27-593)
In short: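 Confluent cells preloaded with 0.5 mM d-luciferin at room temperature until luminescence baseline stabilised (30 min), then given varying agonist concentrations. Luminescence time course recorded after α/β-peptide addition. Means ±SEM of n>4 experiments, each in duplicate.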

R^0 form of rat PTHR-1 = target: T3, R^0 form of rat PTHR-1 (Rattus norvegicus, UniProt P25961); test: Radio-ligand competition binding to R^0 form of rat PTHR-1; details: for R^0/RG: ratio of R^0 to RG IC50, rat PTHR-1; for affinity for the R^0 state of rPTHR-1, in words: compared with PTH(1-34)
T3 construct: expressed in transfected cells; host or cells: COS-7
T3 sequence (P25961 27-591): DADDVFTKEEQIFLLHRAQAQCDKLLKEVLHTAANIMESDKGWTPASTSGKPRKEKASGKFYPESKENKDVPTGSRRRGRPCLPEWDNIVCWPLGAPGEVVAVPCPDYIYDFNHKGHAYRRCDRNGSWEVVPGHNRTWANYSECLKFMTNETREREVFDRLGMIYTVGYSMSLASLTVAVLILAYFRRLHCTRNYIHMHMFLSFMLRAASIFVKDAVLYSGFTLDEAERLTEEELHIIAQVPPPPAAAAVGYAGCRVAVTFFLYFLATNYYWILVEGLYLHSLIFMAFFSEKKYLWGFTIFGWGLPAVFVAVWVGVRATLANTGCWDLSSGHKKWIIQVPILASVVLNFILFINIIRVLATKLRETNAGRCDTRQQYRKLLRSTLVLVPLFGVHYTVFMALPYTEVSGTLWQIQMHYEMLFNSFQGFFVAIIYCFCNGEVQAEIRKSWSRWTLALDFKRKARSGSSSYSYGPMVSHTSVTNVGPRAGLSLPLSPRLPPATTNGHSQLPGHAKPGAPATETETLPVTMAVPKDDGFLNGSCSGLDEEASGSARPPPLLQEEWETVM
Source text: as §1

RG form of human PTHR-1 = target: T4, RG form of human PTHR-1 (Homo sapiens, UniProt Q03431); test: Radio-ligand competition binding to RG form of human PTHR-1 (COS-7 membranes, 125I-M-PTH(1-15) tracer, high affinity Gαs mutant)
T4 construct: expressed in transfected cells; host or cells: COS-7
T4 sequence (Q03431 27-593): T1 sequence (Q03431 27-593)
Source text: as §1

PTH2R/PTH1R = test: cAMP response selectivity between PTH2R and PTH1R; assay type: cell-based; details: most selective; for cAMP response PTH1R/PTH2R: Table 17
Source text: Selected analogs containing beta-amino acid substitutions selectively signal through one or the other of the two receptors. Without being bound to any underling biological phenomenon or mechanism, PTHR-2 likely serves an alternative function to PTHR-1 as it is highly expressed in the central nervous system. In contrast, PTHR-1 is highly expressed in bone and kidney, but not in the CNS. The analogs disclosed herein are thus useful as therapeutic compounds that a specific agonists or antagonists of PTHR-1 and PTHR-2.

RG form of rat PTHR-1 = target: T5, RG form of rat PTHR-1 (Rattus norvegicus, UniProt P25961); test: Radio-ligand competition binding to RG form of rat PTHR-1
T5 construct: expressed in transfected cells; host or cells: COS-7
T5 sequence (P25961 27-591): T3 sequence (P25961 27-591)
Source text: as §1

[1] = Table 6, GP-2.3 cells, mean ± SEM
[2] = Table 2, read-out: R^0 IC50, nM, Binding (rPTHR-1)
[3] = Table 5, rat PTHR-1, mean ± SEM, read-out: R^0 -log (IC50) (converted)
[4] = Table 2, read-out: RG IC50, nM, Binding (rPTHR-1)

Row | cAMP (hPTHR-1) Max (WT human PTHR-1; Table 1) | IC50 (R^0 form of human PTHR-1; Table 1, COS-7 membranes, 125I-PTH(1-34) tracer, GTPγS, read-out: R^0 IC50, nM, Binding (hPTHR-1)) [nM] | EC50 (WT human PTHR-1; Table 1, GP-2.3 cells, read-out: cAMP (hPTHR-1) EC50) [nM] | IC50 (RG form of human PTHR-1; Table 1, 125I-M-PTH(1-15) tracer, Gαs mutant, read-out: RG IC50, nM, Binding (hPTHR-1)) [nM] | IC50 (RG form of rat PTHR-1; Table 5, rat PTHR-1, mean ± SEM, read-out: RG -log (IC50) (converted)) [nM] | SMILES | IC50 (R^0 form of human PTHR-1) [nM] | R^0/RG (R^0 form of human PTHR-1) | affinity for the R^0 state of hPTHR-1, in words (R^0 form of human PTHR-1) | Fold nM PTH(1-34) (WT human PTHR-1; Table 6) | Max (WT human PTHR-1; [1]) | pEC50 (WT human PTHR-1; [1]) | IC50 (R^0 form of rat PTHR-1; [2]) [nM] | IC50 (R^0 form of rat PTHR-1; [3]) [nM] | R^0/RG (R^0 form of rat PTHR-1; Table 5) | affinity for the R^0 state of rPTHR-1, in words (R^0 form of rat PTHR-1) | IC50 (RG form of human PTHR-1) [nM] | cAMP response PTH1R/PTH2R (PTH2R/PTH1R) | IC50 (RG form of rat PTHR-1; [4]) [nM] | cAMP response PTH2R/PTH1R (PTH2R/PTH1R; Table 16)
1 | 1.00 |  |  |  |  | CC[C@H](C)[C@H](NC(=O)[C@H](CCC(=O)O)NC(=O)[C@H](CO)NC(=O)[C@@H](NC(=O)[C@@H](N)CO)C(C)C)C(=O)N[C@@H](CCC(N)=O)C(=O)N[C@@H](CC(C)C)C(=O)N[C@@H](CCSC)C(=O)N[C@@H](Cc1cnc[nH]1)C(=O)N[C@@H](CC(N)=O)C(=O)N[C@@H](CC(C)C)C(=O)NCC(=O)N[C@@H](CCCCN)C(=O)N[C@@H](Cc1cnc[nH]1)C(=O)N[C@@H](CC(C)C)C(=O)N[C@@H](CC(N)=O)C(=O)N[C@@H](CO)C(=O)N[C@@H](CCSC)C(=O)N[C@@H](CCC(=O)O)C(=O)N[C@@H](CCCN=C(N)N)C(=O)N[C@H](C(=O)N[C@@H](CCC(=O)O)C(=O)N[C@@H](Cc1c[nH]c2ccccc12)C(=O)N[C@@H](CC(C)C)C(=O)N[C@@H](CCCN=C(N)N)C(=O)N[C@@H](CCCCN)C(=O)N[C@@H](CCCCN)C(=O)N[C@@H](CC(C)C)C(=O)N[C@@H](CCC(N)=O)C(=O)N[C@@H](CC(=O)O)C(=O)N[C@H](C(=O)N[C@@H](Cc1cnc[nH]1)C(=O)N[C@@H](CC(N)=O)C(=O)N[C@@H](Cc1ccccc1)C(=O)O)C(C)C)C(C)C [PTH(1-34), reference compound] |  |  |  |  | 217 ± 20 luminescence counts per second × 10^−3 |  |  |  |  |  |  | 0.9 |  | 1.1
2 | 0.98 | 19 | 0.11 | 0.086 | 4.27 | CC[C@H](C)[C@H](NC(=O)[C@H](CCC(=O)O)NC(=O)[C@H](CO)NC(=O)[C@@H](NC(=O)[C@@H](N)CO)C(C)C)C(=O)N[C@@H](CCC(N)=O)C(=O)N[C@@H](CC(C)C)C(=O)N[C@@H](CCSC)C(=O)N[C@@H](Cc1c[nH]cn1)C(=O)N[C@@H](CC(N)=O)C(=O)N[C@@H](CC(C)C)C(=O)NCC(=O)N[C@@H](CCCCN)C(=O)N[C@@H](Cc1c[nH]cn1)C(=O)N[C@@H](CC(C)C)C(=O)N[C@@H](CC(N)=O)CC(=O)N[C@@H](CO)C(=O)N[C@@H](CCSC)C(=O)N[C@@H](CCC(=O)O)C(=O)N[C@@H](CCCNC(=N)N)CC(=O)N[C@H](C(=O)N[C@@H](CCC(=O)O)C(=O)N[C@@H](Cc1c[nH]c2ccccc12)C(=O)N[C@H](CC(=O)N[C@@H](CCCNC(=N)N)C(=O)N[C@@H](CCCCN)C(=O)N[C@@H](CCCCN)C(=O)N[C@H](CC(=O)N[C@@H](CCC(N)=O)C(=O)N[C@@H](CC(=O)O)C(=O)N[C@H](C(=O)N[C@@H](CCC(N)=O)CC(=O)N[C@@H](CC(N)=O)C(=O)N[C@@H](Cc1ccccc1)C(N)=O)C(C)C)CC(C)C)CC(C)C)C(C)C [B5] |  | 225 | an order of magnitude more weakly | 0.63 | 212 ± 30 luminescence counts per second × 10^−3 |  | 65 | 66.1 | 15 | significantly weaker affinity |  | 43 | 4.2 | 

Row | SMILES | cAMP (hPTHR-1) Max (WT human PTHR-1; Table 1) | IC50 (R^0 form of human PTHR-1; Table 1, COS-7 membranes, 125I-PTH(1-34) tracer, GTPγS, read-out: R^0 IC50, nM, Binding (hPTHR-1)) [nM] | EC50 (WT human PTHR-1; Table 1, GP-2.3 cells, read-out: cAMP (hPTHR-1) EC50) [nM] | IC50 (RG form of human PTHR-1; Table 1, 125I-M-PTH(1-15) tracer, Gαs mutant, read-out: RG IC50, nM, Binding (hPTHR-1)) [nM] | IC50 (RG form of rat PTHR-1; Table 5, rat PTHR-1, mean ± SEM, read-out: RG -log (IC50) (converted)) [nM] | IC50 (R^0 form of human PTHR-1) [nM] | R^0/RG (R^0 form of human PTHR-1) | affinity for the R^0 state of hPTHR-1, in words (R^0 form of human PTHR-1) | Fold nM PTH(1-34) (WT human PTHR-1; Table 6) | Max (WT human PTHR-1; [1]) | pEC50 (WT human PTHR-1; [1]) | IC50 (R^0 form of rat PTHR-1; [2]) [nM] | IC50 (R^0 form of rat PTHR-1; [3]) [nM] | R^0/RG (R^0 form of rat PTHR-1; Table 5) | affinity for the R^0 state of rPTHR-1, in words (R^0 form of rat PTHR-1) | IC50 (RG form of human PTHR-1) [nM] | cAMP response PTH1R/PTH2R (PTH2R/PTH1R) | IC50 (RG form of rat PTHR-1; [4]) [nM] | cAMP response PTH2R/PTH1R (PTH2R/PTH1R; Table 16)
3 | CC[C@H](C)[C@H](NC(=O)[C@H](CCC(=O)O)NC(=O)[C@H](CO)NC(=O)[C@@H](NC(=O)[C@@H](N)CO)C(C)C)C(=O)N[C@@H](CCC(N)=O)C(=O)N[C@@H](CC(C)C)C(=O)N[C@@H](CCSC)C(=O)N[C@@H](Cc1cnc[nH]1)C(=O)N[C@@H](CC(N)=O)C(=O)N[C@@H](CC(C)C)C(=O)NCC(=O)N[C@@H](CCCCN)C(=O)N[C@H](CC(=O)N[C@@H](CC(C)C)C(=O)N[C@@H](CC(N)=O)C(=O)N[C@@H](CO)C(=O)N[C@@H](CCSC)CC(=O)N[C@@H](CCC(=O)O)C(=O)N[C@@H](CCCNC(=N)N)C(=O)N[C@H](C(=O)N[C@@H](CCC(=O)O)CC(=O)N[C@@H](Cc1c[nH]c2ccccc12)C(=O)N[C@@H](CC(C)C)C(=O)N[C@@H](CCCNC(=N)N)C(=O)N[C@@H](CCCCN)CC(=O)N[C@@H](CCCCN)C(=O)N[C@@H](CC(C)C)C(=O)N[C@@H](CCC(N)=O)C(=O)N[C@@H](CC(=O)O)CC(=O)N[C@H](C(=O)N[C@@H](Cc1cnc[nH]1)C(=O)N[C@@H](CC(N)=O)C(=O)N[C@H](CC(N)=O)Cc1ccccc1)C(C)C)C(C)C)Cc1c[nH]c2ccccc12 [D6] | 0.87 |  |  |  |  | 2 | 31 | comparably to PTH(1-34) | 0.76 | 189 ± 29 luminescence counts per second × 10^−3 | 9.89 ± 0.08 | 6.1 | 6.03 | 8 | somewhat weaker affinity | 0.065 | 33 | 0.81 | 
